Data set [1] deals with Rattus norvegicus. Nature of the data set: Antiinflammatory activity in Wistar rat assessed as inhibition of carrageenan-induced paw edema at 200 mg/kg, po administered 30 mins prior to 1%, sc carrageenan challenge measured after 3 hrs. It counts as functional.
Data set [2] has as its system Rattus norvegicus. Briefly: Antiinflammatory activity in po dosed Wistar rat assessed as inhibition of carrageenan-induced paw edema administered 30 mins prior to 1%, sc carrageenan challenge measured after 3 hrs. It counts as functional.
Data set [3] concerns Rattus norvegicus. Briefly: Toxicity in po dosed Wistar rat. It counts as organism-based. To be noted: in vivo.
For data set [4], the system named is Rattus norvegicus. Nature of the data set: Antiinflammatory activity in po dosed Wistar rat assessed as inhibition of carrageenan-induced paw edema administered 60 mins prior to 1%, sc carrageenan challenge measured after 3 hrs. The format is functional.
Data set [5] deals with Rattus norvegicus. Briefly: Antiinflammatory activity in po dosed Wistar rat assessed as inhibition of carrageenan-induced paw edema administered 120 mins prior to 1%, sc carrageenan challenge measured after 3 hrs. The format is functional.

These results are taken from ChEMBL document CHEMBL3272102, “Carboxyarylindoles as nonsteroidal antiinflammatory agents” (J Med Chem, 1976).

For the compound `O=C(O)c1cc(-n2c3c(c(-c4ccccc4)c2-c2ccccc2)CCCC3)ccc1O`, the inhibition in vivo at 200 mg/kg in the data set with Rattus norvegicus [1] was 30%.
With `O=C(O)c1cc(-n2c(-c3ccccc3)cc3c2-c2ccccc2CC3)ccc1O`, in the data set with Rattus norvegicus [1], the inhibition in vivo at 200 mg/kg is 0%.
Still for that read-out and setting: the result for `CCNC(=O)c1cc(-n2c(-c3ccccc3)cc3c2CCc2ccccc2-3)ccc1O` reads 0%.
Consider `O=C(O)c1cc(-n2c(-c3ccccc3)cc3c2CCCC3)ccc1O`, for which the inhibition in vivo at 200 mg/kg in the data set with Rattus norvegicus [1] was ≥ 60%. Further, the ED50 with Rattus norvegicus [2] is 87 mg/kg.
As to `COc1cccc(-c2cc3c(n2-c2ccc(O)c(C(=O)O)c2)CCCC3)c1`, the inhibition in vivo at 200 mg/kg in the data set on Rattus norvegicus [1] is 20%.
For the compound `O=C(O)c1cc(-n2c(-c3ccccc3)cc3c2CCc2cc(Cl)ccc2-3)ccc1O`, the inhibition in vivo at 200 mg/kg in the data set on Rattus norvegicus [1] came out at 50%.
Still for that read-out and setting: then `O=C(O)c1cc(-n2c(-c3cccc(C(F)(F)F)c3)cc3c2CCCC3)ccc1O`, with 20%; and `O=C(O)c1cc(-n2c(-c3cccs3)cc3c2CCCC3)ccc1O`, with 30%.
For the compound `COc1ccc(-c2cc3c(n2-c2ccc(O)c(C(=O)O)c2)CCCC3)cc1`, the inhibition in vivo at 200 mg/kg with Rattus norvegicus [1] is 50%. The ED50 in the data set on Rattus norvegicus [2] stood at 173 mg/kg.
On to `O=C(O)c1cc(-n2c(-c3ccc(-c4ccccc4)cc3)cc3c2CCCC3)ccc1O`, for which the inhibition in vivo at 200 mg/kg in the data set on Rattus norvegicus [1] stood at 50%. The ED50 in the data set with Rattus norvegicus [2] was 162 mg/kg.
For `CCOC(=O)c1cc(-n2c(-c3ccccc3)cc3c2CCc2ccccc2-3)ccc1O`, in the data set with Rattus norvegicus [1], the inhibition in vivo at 200 mg/kg came to 0%.
Consider `O=C(O)c1cc(-n2c(-c3ccccc3)cc3c2CCC3)ccc1O`, for which the Activity entry in the data set with Rattus norvegicus [3] is listed as “Toxic”. Also, the inhibition in vivo at 200 mg/kg in the data set with Rattus norvegicus [1] is 40%.
For `N#Cc1ccc(-c2cc3c(n2-c2ccc(O)c(C(=O)O)c2)CCCC3)cc1`, in the data set on Rattus norvegicus [1], the inhibition in vivo at 200 mg/kg amounted to 0%.
Take `COC(=O)c1cc(-n2c(-c3ccccc3)cc3c2CCCC3)ccc1OC(=S)N(C)C`: in the data set on Rattus norvegicus [1], the inhibition in vivo at 200 mg/kg came out at 0%.
Take `CC(=O)Oc1ccccc1C(=O)O` [ASPIRIN]: the inhibition in vivo at 200 mg/kg in the data set with Rattus norvegicus [1] was ≥ 60%. Further, in the data set on Rattus norvegicus [2], the 50% effective dose (ED50) amounted to 140 mg/kg.
For `Nc1ccc(-n2c(-c3ccccc3)cc3c2CCCC3)cc1C(=O)O`, in the data set on Rattus norvegicus [1], the inhibition in vivo at 200 mg/kg was determined as 40%.
As to `O=C(O)c1ccc(-n2c(-c3ccccc3)cc3c2CCCC3)cc1O`, the inhibition in vivo at 200 mg/kg in the data set on Rattus norvegicus [1] was determined as 0%.
For `O=C(O)c1cc(-n2c(-c3ccccc3)cc3c4ccccc4ccc32)ccc1O`, the ED50 in the data set on Rattus norvegicus [4] is 69 mg/kg; in the data set with Rattus norvegicus [2], 105 mg/kg. The inhibition in vivo at 200 mg/kg in the data set with Rattus norvegicus [1] was ≥ 60%.
As for `O=C(O)c1cc(-n2c(-c3ccccc3)cc3c2CCCC3)cc(Br)c1O`, the inhibition in vivo at 200 mg/kg in the data set with Rattus norvegicus [1] turned out to be 0%.
On to `CC1CCc2c(cc(-c3ccccc3)n2-c2ccc(O)c(C(=O)O)c2)C1` (stereo not given), for which, in the data set with Rattus norvegicus [1], the inhibition in vivo at 200 mg/kg was found to be 40%.
Turning to `O=C(O)c1cc(-n2c(-c3ccccc3)cc3ccccc32)ccc1O`, in the data set on Rattus norvegicus [1], the inhibition in vivo at 200 mg/kg is ≥ 60%.
On the same count and under the same terms, the result for `O=C(O)c1cc(-n2c(-c3ccc(Cl)c(Cl)c3)cc3c2CCCC3)ccc1O` reads 0%.
As to `COC(=O)c1cc(-n2c(-c3ccccc3)cc3c2CCCC3)ccc1SC(=O)N(C)C`, in the data set with Rattus norvegicus [1], the inhibition in vivo at 200 mg/kg came out at 0%.
Same read-out and setting: then `Cc1ccc(-c2cc3c(n2-c2ccc(O)c(C(=O)O)c2)CCCC3)cc1`, with 30%.
Regarding `COC(=O)c1cc(-n2c(-c3ccccc3)cc3c2CCCC3)ccc1O`, the inhibition in vivo at 200 mg/kg with Rattus norvegicus [1] is 0%.
As to `CC(=O)Oc1ccc(-n2c(-c3ccccc3)cc3c2CCCC3)cc1C(=O)O`, the inhibition in vivo at 200 mg/kg in the data set on Rattus norvegicus [1] was determined as 50%.
As to `O=C(O)c1cc(-n2c(-c3ccccc3)cc3c2CCCCC3)ccc1O`, the Activity result in the data set on Rattus norvegicus [3] was “Toxic”. Also, in the data set on Rattus norvegicus [1], the inhibition in vivo at 200 mg/kg is 50%.
Consider `COc1ccc2c(c1)CCc1c-2cc(-c2ccccc2)n1-c1ccc(O)c(C(=O)O)c1`, for which the ED50 in the data set with Rattus norvegicus [4] was determined as 164 mg/kg. Further, the inhibition in vivo at 200 mg/kg in the data set with Rattus norvegicus [1] came out at 50%.
Regarding `CC(C)(C)C1CCc2c(cc(-c3ccccc3)n2-c2ccc(O)c(C(=O)O)c2)C1` (stereo not given), the inhibition in vivo at 200 mg/kg in the data set with Rattus norvegicus [1] came to 0%.
Turning to `COC(=O)c1cc(-n2c(-c3ccccc3)cc3c2CCc2ccccc2-3)ccc1O`, the inhibition in vivo at 200 mg/kg in the data set on Rattus norvegicus [1] came out at 30%.
On to `O=C(O)c1cc(-n2c(-c3ccc(F)cc3)cc3c2CCCC3)ccc1O`, for which the inhibition in vivo at 200 mg/kg in the data set with Rattus norvegicus [1] was ≥ 60%. The ED50 in the data set with Rattus norvegicus [2] came to 88 mg/kg.
For `O=C(O)c1cc(-n2c(-c3ccccc3)cc3c2CCCC3)c(C(F)(F)F)cc1O`, in the data set on Rattus norvegicus [1], the inhibition in vivo at 200 mg/kg turned out to be 0%.
Consider `O=C(O)c1cc(-n2c(-c3ccccc3)cc3c2CCc2ccccc2-3)ccc1O` [FENDOSAL], for which the 50% effective dose (ED50) in the data set with Rattus norvegicus [5] came out at 66 mg/kg; with Rattus norvegicus [2], 125 mg/kg. For the same compound, the inhibition in vivo at 200 mg/kg in the data set on Rattus norvegicus [1] is ≥ 60%.
Take `O=C(O)c1cc(-n2c(-c3ccc([N+](=O)[O-])cc3)cc3c2CCCC3)ccc1O`: the inhibition in vivo at 200 mg/kg with Rattus norvegicus [1] was 30%.
Take `O=C(O)c1cc(-n2c(-c3ccc(Cl)cc3)cc3c2CCCC3)ccc1O`: in the data set with Rattus norvegicus [1], the inhibition in vivo at 200 mg/kg amounted to 40%.
Same read-out and setting: the result for `CC(=O)Nc1ccc(-n2c(-c3ccccc3)cc3c2CCCC3)cc1C(=O)O` reads 30%; that for `COc1ccc(-n2c(-c3ccccc3)cc3c2CCCC3)cc1C(=O)O`, 40%.
Same read-out and setting: the result for `O=C(O)c1cc(-n2c(-c3ccccc3)cc3c2CCCC3)cc(Cl)c1O` reads 0%; that for `COC1CCc2c(cc(-c3ccccc3)n2-c2ccc(O)c(C(=O)O)c2)C1` (stereo not given), 40%; that for `O=C(O)c1cccc(-n2c(-c3ccccc3)cc3c2CCCC3)c1`, 20%.
Turning to `CC(C)(C)c1ccc2c(c1)cc(-c1ccccc1)n2-c1ccc(O)c(C(=O)O)c1`, in the data set on Rattus norvegicus [1], the inhibition in vivo at 200 mg/kg stood at 0%.
Still for that read-out and setting: then `COc1ccccc1-c1cc2c(n1-c1ccc(O)c(C(=O)O)c1)CCCC2`, with 50%.
Same read-out and setting: the result for `O=C(O)c1cc(-n2c(-c3ccccc3)cc3c2Cc2ccccc2-3)ccc1O` reads 30%; that for `O=C(O)c1cc(-n2c(-c3ccccc3)cc3c2CCCC3)ccc1S`, 50%; that for `CC(=O)Nc1cc(-n2c(-c3ccccc3)cc3c2CCCC3)cc(C(=O)O)c1O`, 0%.
On to `O=C(O)c1cc(-n2c(-c3ccc(O)cc3)cc3c2CCCC3)ccc1O`, for which, in the data set on Rattus norvegicus [1], the inhibition in vivo at 200 mg/kg was 20%.
On the same count and under the same terms, then `O=C(O)c1cc(-n2c(-c3ccccc3)cc3c2CCCC3)ccc1Cl`, with 40%; and `O=C(O)c1cc(-n2c(-c3ccc(Br)cc3)cc3c2CCCC3)ccc1O`, with 40%.
Regarding `CC(=O)Oc1ccc(-n2c(-c3ccccc3)cc3c2CCc2ccccc2-3)cc1C(=O)O`, the 50% effective dose (ED50) in the data set on Rattus norvegicus [5] worked out at 75 mg/kg. In addition, the inhibition in vivo at 200 mg/kg in the data set with Rattus norvegicus [1] stood at 50%.
Take `CC(C)(C)c1cc2c(n1-c1ccc(O)c(C(=O)O)c1)CCc1ccccc1-2`: in the data set with Rattus norvegicus [1], the inhibition in vivo at 200 mg/kg was 40%.
`CC(=O)c1c2c(n(-c3ccc(O)c(C(=O)O)c3)c1-c1ccccc1)CCc1ccccc1-2`: the inhibition in vivo at 200 mg/kg with Rattus norvegicus [1] is 0%.
Same read-out and setting: then `O=C(O)c1cc(-n2c(-c3ccccc3)cc3c2CCCC3=O)ccc1O`, with 0%.
